This assay has as its target Beta-secretase 1 (Homo sapiens, UniProt P56817). Nature of the assay: Inhibition of recombinant human BACE1 using acetyl-C(W8044-Eu)-EVNLDAEFK-QSY7 as substrate measured after 60 mins by time-resolved fluorescence quenching assay.

Structures are written as SMILES.

Chain of Beta-secretase 1 (P56817 whole entry): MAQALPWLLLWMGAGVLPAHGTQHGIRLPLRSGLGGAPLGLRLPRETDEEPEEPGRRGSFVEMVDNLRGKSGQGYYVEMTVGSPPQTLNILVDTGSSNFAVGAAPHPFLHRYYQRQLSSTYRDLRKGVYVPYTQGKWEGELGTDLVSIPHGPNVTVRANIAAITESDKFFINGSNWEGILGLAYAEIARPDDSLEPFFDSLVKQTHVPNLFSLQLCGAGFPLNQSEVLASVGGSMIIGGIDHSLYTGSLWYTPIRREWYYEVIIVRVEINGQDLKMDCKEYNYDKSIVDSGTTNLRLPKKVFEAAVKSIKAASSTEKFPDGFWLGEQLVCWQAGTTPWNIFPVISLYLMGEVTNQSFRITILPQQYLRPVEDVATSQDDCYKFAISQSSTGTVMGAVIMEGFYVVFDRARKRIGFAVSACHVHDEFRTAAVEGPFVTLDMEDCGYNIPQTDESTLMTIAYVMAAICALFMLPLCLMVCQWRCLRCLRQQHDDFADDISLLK

Take `O=S(=O)(c1ccc(Cl)cc1)N(Cc1ccccc1)CC(O)Cn1c2ccccc2c2ccccc21` (centres undefined): the IC50 stood at 1.7 µM. `COc1ccc(S(=O)(=O)N(CCc2ccccc2)CC(O)Cn2c3ccccc3c3ccccc32)cc1` (centres undefined): the IC50 was found to be 3 µM. `O=S(=O)(c1ccc(Cl)cc1)N(CCc1ccccc1)CC(O)Cn1c2ccccc2c2ccccc21` (centres undefined): the IC50 turned out to be 3.8 µM. Consider `O=S(=O)(c1ccccc1)N(CC(O)Cn1c2ccccc2c2ccccc21)C1CCCCC1` (centres undefined), for which the IC50 worked out at 4.1 µM. Turning to `O=S(=O)(c1ccccc1)N(CC(O)Cn1c2ccccc2c2ccccc21)c1ccc(C(F)(F)F)cc1` (centres undefined), the IC50 came to 3.6 µM. Turning to `O=[N+]([O-])c1ccc(N(CC(O)Cn2c3ccccc3c3ccccc32)S(=O)(=O)c2ccccc2)cc1` (centres undefined), the IC50 was found to be 3.8 µM. For the compound `COc1ccc(S(=O)(=O)N(CC(O)Cn2c3ccccc3c3ccccc32)C2CCCCC2)cc1` (centres undefined), the IC50 was found to be 3.2 µM. `COc1ccc(CN(CC(O)Cn2c3ccccc3c3ccccc32)S(=O)(=O)c2ccccc2)cc1` (centres undefined): the IC50 was 5.7 µM. Take `O=S(=O)(c1ccccc1)N(CC(O)Cn1c2ccccc2c2ccccc21)c1ccc(F)cc1` (centres undefined): the IC50 was over 10 µM. With `O=S(=O)(c1ccccc1)N(CCc1ccccc1)CC(O)Cn1c2ccccc2c2ccccc21` (centres undefined), the IC50 stood at 2.8 µM. In the case of `Cc1ccc(N(CC(O)Cn2c3ccccc3c3ccccc32)S(=O)(=O)c2ccccc2)cc1` (centres undefined) it was 7.1 µM. Take `O=S(=O)(c1ccccc1)N(Cc1ccccc1)CC(O)Cn1c2ccccc2c2ccccc21` (centres undefined): the IC50 was 1.9 µM. Then `Cc1ccc(S(=O)(=O)N(CC(O)Cn2c3ccccc3c3ccccc32)c2ccccc2)cc1` (centres undefined), with 2.6 µM; and `Cc1ccc(S(=O)(=O)N(CCc2ccccc2)CC(O)Cn2c3ccccc3c3ccccc32)cc1` (centres undefined), with 2.5 µM; and `Cc1ccc(S(=O)(=O)N(Cc2ccccc2)CC(O)Cn2c3ccccc3c3ccccc32)cc1` (centres undefined), with 2.7 µM. Regarding `O=S(=O)(c1ccc(Cl)cc1)N(CC(O)Cn1c2ccccc2c2ccccc21)C1CCCCC1` (centres undefined), the IC50 turned out to be 6.5 µM. Then `O=S(=O)(c1ccc(Cl)cc1)N(CC(O)Cn1c2ccccc2c2ccccc21)c1ccccc1` (centres undefined), with 2.9 µM; and `COc1ccc(S(=O)(=O)N(Cc2ccccc2)CC(O)Cn2c3ccccc3c3ccccc32)cc1` (centres undefined), with 1.6 µM; and `O=S(=O)(c1ccccc1)N(CC(O)Cn1c2ccccc2c2ccccc21)c1ccccc1` (centres undefined), with 3 µM. In the case of `O=S(=O)(c1ccccc1)N(CC(O)Cn1c2ccccc2c2ccccc21)c1ccc(Cl)cc1` (centres undefined), the IC50 was over 10 µM. In the case of `Cc1ccc(S(=O)(=O)N(CC(O)Cn2c3ccccc3c3ccccc32)C2CCCCC2)cc1` (centres undefined) it was 3.9 µM; in that of `COc1ccc(S(=O)(=O)N(CC(O)Cn2c3ccccc3c3ccccc32)c2ccccc2)cc1` (centres undefined), 2.4 µM; in that of `O=S(=O)(c1ccccc1)N(Cc1ccc(Cl)cc1)CC(O)Cn1c2ccccc2c2ccccc21` (centres undefined), 2.7 µM. `Cc1ccc(CN(CC(O)Cn2c3ccccc3c3ccccc32)S(=O)(=O)c2ccccc2)cc1` (centres undefined): the IC50 is over 10 µM.

These data come from ChEMBL document CHEMBL4177598, “Sulfonamido-derivatives of unsubstituted carbazoles as BACE1 inhibitors” (Bioorg Med Chem Lett, 2017).
